Consider 2 compounds from patent US20260165983A1, “VITAMIN A FORMULATION” (ADISSEO FRANCE S.A.S., priority 2020, published 2026).

The nature of series [1]: Dynamic oxidation test by DSC (differential scanning calorimeter) under oxygen flow. Type of series: physicochemical. As to conditions: oxygen flow 50 ml/min; vitamin A acetate with 20% by weight antioxidant; higher temperature = higher antioxidant power. Here is the method: (§1) The antioxidant power measurement methods used in the examples for antioxidant and vitamin A (as vitamin A acetate) mixtures are shown below.
1) Dynamic Oxidation Test by DSC (Differential Scanning Calorimeter)
It is carried out under oxygen flow (50 ml/min) then the temperature is raised to a temperature above the melting point of vitamin A (i.e. above 60° C.).
The oxidation corresponds to an exothermic phenomenon which occurs at a given temperature. For BHT, it occurs at 153° C. The higher the oxidation temperature, the higher the antioxidant power.
All the samples having a temperature greater than or equal to 120° C. will be retained for a much longer Oxipres test.

A short description of series [2]: Oxipres test (oxygen consumption under O2 pressure). The format is physicochemical.
Excerpt: as §1
This test consists of putting the samples under O2 pressure at a given temperature. The method allows determining the kinetics of oxygen consumption, expressed by a variation of O2 (ΔP in bars), this variation being all the smaller as the antioxidant power is high.

Consider `Cc1cc(C(C)(C)C)c(O)c(C(C)(C)C)c1` [BHT, 2,6-di-tert-butyl-4-methyl-phenol, reference compound], for which the “DSC DYN Onset (oxidation temperature)” value in series [1] was found to be 153 °C.

Consider `CC(=O)OC/C=C(C)/C=C/C=C(C)/C=C/C1=C(C)CCCC1(C)C` [Sample 1, vitamin A acetate], for which, in series [1], the “DSC DYN Onset (oxidation temperature)” value was 60 °C. For the same compound, the “Oxipres Time” value in series [2] (under O2 pressure at a given temperature) was 0 h. Further, the “Oxipres ΔP (variation of O2)” value in series [2] (under O2 pressure, smaller ΔP = higher antioxidant power) turned out to be 5.0 Bars.
